Reference: patent US9113629B2, “4-amino-6-(4-substituted-phenyl)-picolinates and 6-amino-2-(4-substituted-phenyl)-pyrimidine-4-carboxylates and their use as herbicides” (DOW AGROSCIENCES LLC, priority 2013, dated 2015)
Where two headings read alike, the source gives them in different places.

How the values were obtained:
Assay in all cases: Post-emergent Test III, herbicidal activity in wheat and barley
Format in all cases: in vivo
[1] = system: ALOMY: black-grass (Alopecurus myosuroides); conditions: for pest or weed control at 35 g/ha / pest or weed control at 70 g/ha / pest or weed control at 140 g/ha: Alopecurus myosuroides, post-emergence, 504 h, read-out: Visual Growth Reduction (%) 21 Days After Application ALOMY; for pest or weed control at 35 g/ha: 35 g ai/ha; for pest or weed control at 70 g/ha: 70 g ai/ha; for pest or weed control at 140 g/ha: 140 g ai/ha; for GR50 ALOMY / GR80 ALOMY: probit analysis, 21 days after application; for GR50 ALOMY: dose for growth reduction of 50 percent; for GR80 ALOMY: dose for growth reduction of 80 percent
Procedure, shortened: (§1)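 GR20, GR50, GR80 and GR90 come from probit analysis of visual injury scores (0 = none, 100 = complete kill) taken 21 d after treatment. Foliar application was by track sprayer delivering 187 L/ha at five rates, from high down to 1/16×, onto greenhouse plants at the 2–3 leaf stage, with solvent-blank controls.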

[2] = system: BROTE: downy brome (Bromus tectorum); conditions: for pest or weed control at 35 g/ha / pest or weed control at 70 g/ha / pest or weed control at 140 g/ha: Bromus tectorum, post-emergence, 504 h, read-out: Visual Growth Reduction (%) 21 Days After Application BROTE; for pest or weed control at 35 g/ha: 35 g ai/ha; for pest or weed control at 70 g/ha: 70 g ai/ha; for pest or weed control at 140 g/ha: 140 g ai/ha; for GR50 BROTE / GR80 BROTE: probit analysis, 21 days after application; for GR50 BROTE: dose for growth reduction of 50 percent; for GR80 BROTE: dose for growth reduction of 80 percent
Procedure, shortened: as §1

[3] = system: PHAMI: lesser canary grass (Phalaris minor); conditions: for pest or weed control at 35 g/ha / pest or weed control at 70 g/ha / pest or weed control at 140 g/ha: Phalaris minor, post-emergence, 504 h, read-out: Visual Growth Reduction (%) 21 Days After Application PHAMI; for pest or weed control at 35 g/ha: 35 g ai/ha; for pest or weed control at 70 g/ha: 70 g ai/ha; for pest or weed control at 140 g/ha: 140 g ai/ha; for GR50 PHAMI / GR80 PHAMI: probit analysis, 21 days after application; for GR50 PHAMI: dose for growth reduction of 50 percent; for GR80 PHAMI: dose for growth reduction of 80 percent
Procedure, shortened: as §1

[4] = system: PAPRH: common poppy (Papaver rhoeas); conditions: for pest or weed control at 35 g/ha / pest or weed control at 70 g/ha / pest or weed control at 140 g/ha: Papaver rhoeas, post-emergence, 504 h, read-out: Visual Growth Reduction (%) 21 Days After Application PAPRH; for pest or weed control at 35 g/ha: 35 g ai/ha; for pest or weed control at 70 g/ha: 70 g ai/ha; for pest or weed control at 140 g/ha: 140 g ai/ha; for GR50 PAPRH / GR80 PAPRH: probit analysis
Procedure, shortened: as §1

[5] = system: STEME: common chickweed (Stellaria media); conditions: for pest or weed control at 35 g/ha / pest or weed control at 70 g/ha / pest or weed control at 140 g/ha: Stellaria media, post-emergence, 504 h, read-out: Visual Growth Reduction (%) 21 Days After Application STEME; for pest or weed control at 35 g/ha: 35 g ai/ha; for pest or weed control at 70 g/ha: 70 g ai/ha; for pest or weed control at 140 g/ha: 140 g ai/ha; for GR50 STEME / GR80 STEME: probit analysis, 21 days after application; for GR50 STEME: dose for growth reduction of 50 percent; for GR80 STEME: dose for growth reduction of 80 percent
Procedure, shortened: as §1

[6] = system: GALAP: cleavers (Galium aparine); conditions: Table 8, 21 d; for pest or weed control at 35 g/ha / pest or weed control at 70 g/ha: Galium aparine, post-emergence, 504 h, post-emergent, read-out: Visual Growth Reduction (%) 21 Days After Application GALAP; for pest or weed control at 35 g/ha: 35 g ai/ha; for pest or weed control at 70 g/ha: 70 g ai/ha; for GR50 GALAP: dose for 50 percent growth reduction; for GR50 GALAP / GR80 GALAP: probit analysis; for GR80 GALAP: dose for 80 percent growth reduction
Procedure, shortened: as §1

[7] = system: CIRAR: Canada thistle (Cirsium arvense); conditions: Table 8, 21 d; for pest or weed control at 35 g/ha / pest or weed control at 70 g/ha: Cirsium arvense, post-emergence, 504 h, post-emergent, read-out: Visual Growth Reduction (%) 21 Days After Application CIRAR; for pest or weed control at 35 g/ha: 35 g ai/ha; for pest or weed control at 70 g/ha: 70 g ai/ha; for GR50 CIRAR: dose for 50 percent growth reduction; for GR50 CIRAR / GR80 CIRAR: probit analysis; for GR80 CIRAR: dose for 80 percent growth reduction
Procedure, shortened: as §1

[8] = dose for growth reduction of 50 percent, 21 days after application
[9] = dose for growth reduction of 80 percent, 21 days after application
[10] = Table 8, dose for 50 percent growth reduction, 21 d
[11] = Table 8, dose for 80 percent growth reduction, 21 d

SMILES	pest or weed control at 35 g/ha [1]	pest or weed control at 70 g/ha [1]	pest or weed control at 140 g/ha [1]	GR50 ALOMY [1]	GR80 ALOMY [1]	pest or weed control at 35 g/ha [2]	pest or weed control at 70 g/ha [2]	pest or weed control at 140 g/ha [2]	GR50 BROTE [2]	GR80 BROTE [2]	pest or weed control at 35 g/ha [3]	pest or weed control at 70 g/ha [3]	pest or weed control at 140 g/ha [3]	GR50 PHAMI [3]	GR80 PHAMI [3]	pest or weed control at 35 g/ha [4]	pest or weed control at 70 g/ha [4]	pest or weed control at 140 g/ha [4]	GR50 PAPRH [4, 8]	GR80 PAPRH [4, 9]	other results
COC(=O)c1nc(-c2ccc(F)cc2)c(F)c(N)c1Cl [Compound 204]	0 to 29%	45 to 59%	45 to 59%	105 g ai/ha	>140 g ai/ha	0 to 29%	0 to 29%	30 to 44%	>140 g ai/ha	>140 g ai/ha	–	–	–	–	–	–	–	–	–	–	–
COC(=O)c1nc(-c2ccc(F)c(F)c2F)c(F)c(N)c1Cl [Compound 186]	0 to 29%	0 to 29%	0 to 29%	>140 g ai/ha	>140 g ai/ha	0 to 29%	0 to 29%	0 to 29%	>140 g ai/ha	>140 g ai/ha	–	–	–	–	–	–	–	–	–	–	–
Nc1cc(-c2ccc(Br)c(F)c2F)nc(C(=O)O)c1Cl [Compound 91]	45 to 59%	45 to 59%	45 to 59%	98 g ai/ha	>140 g ai/ha	45 to 59%	45 to 59%	30 to 44%	29 g ai/ha	>140 g ai/ha	30 to 44%	30 to 44%	30 to 44%	>140 g ai/ha	>140 g ai/ha	95 to 100%	95 to 100%	95 to 100%	1 g ai/ha	1 g ai/ha	pest or weed control at 35 g/ha [5]: 0 to 29%; pest or weed control at 70 g/ha [5]: 30 to 44%; pest or weed control at 140 g/ha [5]: 45 to 59%; GR50 STEME [5]: >140 g ai/ha; GR80 STEME [5]: >140 g ai/ha
Nc1c(F)c(-c2ccc(Cl)c(F)c2)nc(C(=O)O)c1Cl [Compound 217]	75 to 84%	85 to 94%	85 to 94%	12 g ai/ha	31 g ai/ha	75 to 84%	85 to 94%	85 to 94%	15 g ai/ha	33 g ai/ha	85 to 94%	85 to 94%	85 to 94%	11 g ai/ha	30 g ai/ha	95 to 100%	95 to 100%	95 to 100%	1 g ai/ha	1 g ai/ha	pest or weed control at 35 g/ha [5]: 60 to 74%; pest or weed control at 70 g/ha [5]: 75 to 84%; pest or weed control at 140 g/ha [5]: 75 to 84%; GR50 STEME [5]: 28 g ai/ha; GR80 STEME [5]: 88 g ai/ha
Nc1cc(-c2ccc(Br)c(F)c2)nc(C(=O)O)c1Cl [Compound 110, 4-Amino-6-(4-bromo-3-fluorophenyl)-3-chloropicolinic acid]	–	–	–	–	–	–	–	–	–	–	–	–	–	–	–	–	–	–	–	–	pest or weed control at 35 g/ha ([4]; Table 8, post-emergent, 21 d): 95 to 100%; pest or weed control at 70 g/ha ([4]; Table 8, post-emergent, 21 d): 95 to 100%; GR50 PAPRH [4, 10]: 1 g ai/ha; GR80 PAPRH [4, 11]: 1 g ai/ha; pest or weed control at 35 g/ha [6]: 95 to 100%; pest or weed control at 70 g/ha [6]: 95 to 100%; GR50 GALAP [6]: 1 g ai/ha; GR80 GALAP [6]: 1 g ai/ha; pest or weed control at 35 g/ha [7]: 75 to 84%; pest or weed control at 70 g/ha [7]: 75 to 84%; GR50 CIRAR [7]: 19 g ai/ha; GR80 CIRAR [7]: 52 g ai/ha
COc1c(N)nc(-c2ccc(Br)c(F)c2)nc1C(=O)O [Compound 113, 6-Amino-2-(4-bromo-3-fluorophenyl)-5-methoxypyrimidine-4-carboxylic acid]	–	–	–	–	–	–	–	–	–	–	–	–	–	–	–	–	–	–	–	–	pest or weed control at 35 g/ha ([4]; Table 8, post-emergent, 21 d): 95 to 100%; pest or weed control at 70 g/ha ([4]; Table 8, post-emergent, 21 d): 95 to 100%; GR50 PAPRH [4, 10]: 1 g ai/ha; GR80 PAPRH [4, 11]: 1 g ai/ha; pest or weed control at 35 g/ha [6]: 95 to 100%; pest or weed control at 70 g/ha [6]: 95 to 100%; GR50 GALAP [6]: 5 g ai/ha; GR80 GALAP [6]: 12 g ai/ha; pest or weed control at 35 g/ha [7]: 75 to 84%; pest or weed control at 70 g/ha [7]: 85 to 94%; GR50 CIRAR [7]: 7 g ai/ha; GR80 CIRAR [7]: 33 g ai/ha
